One may read the IC50 as the point on the concentration scale where inhibition reaches its midpoint.

Like-named read-outs stand apart in the source and are kept apart here.

Experiment [1] deals with multiple myeloma cell line OPM-2. The experiment can be described thus: Annexin V apoptosis assay (flow cytometry), OPM-2. The following applies: 72 hours, relative to 0.2% DMSO. It is filed as cell-based. From the text: (§1) Method for Measurement of Apoptosis
(§2) The Annexin A5 (or Annexin V) affinity assay provides a method to quantify the number of cells undergoing apoptosis. The assay uses the protein annexin A5 conjugated to fluorescein (FITC Annexin V) and the fluorescent dye propidium iodide (PI) to label early apoptotic (annexin V positive, PI negative) and necrotic/dead cells (annexin V positive, PI positive) quantified by flow cytometry. The annexin A5 protein binds to membrane surfaces containing negatively charged phoshpolipids (phosphatidylserine) which are exposed by apoptotic and dead cells, but not by normal cells. PI binds to nucleic acids in cells which have completely lost the integrity of their plasma membrane, i.e. necrotic cells.
(§3) Standard Annexin V assay protocol was followed (see e.g. http://www.biolegend.com/pop_pdf.php?id=5161 and application references therein). 10,000 cells of each cell line were cultured in 400 μl of medium in 48 well plates. Compounds from 10 mM DMSO stock solutions were added to cells (DMSO content was 0.2%) and incubated for 48 or 72 hours followed by addition of FITC-Annexin V (BioLegend) and PI staining solution (BD Biosciences). The cells were analyzed by flow cytometry, at least 4,000 single cells were analyzed. Compounds were tested either individually at four different concentrations (1, 2.5, 5 and 10 μM) or in combination with 1 μM dexamethasone.
(§4) Annexin V assay results for one compound of the invention (Example 1) with and without 1 μM dexamethasone for the multiple myeloma cell lines OPM-2 and U266 are given in Table 6. In Table 6, the % apoptosis values with compound(s) present are relative to the absence of compounds (only 0.2% DMSO present).

The subject of experiment [2] is multiple myeloma cell line U266. The experiment can be described thus: Annexin V apoptosis assay (flow cytometry), U266. It is filed as cell-based. The following applies: 72 hours, relative to 0.2% DMSO.
Text: as §1, §2, §3, §4

The test system of experiment [3] is AMO-1 (plasmacytoma) cells. The experiment can be described thus: CellTiter-Blue cell viability assay, AMO-1. It is filed as cell-based. The following applies: Homo sapiens, AMO1; 72 hours of treatment. Here is the method: (§5) Method for Measurement of Cell Viability
(§6) The CellTiter-Blue® Cell Viability Assay (Promega) provides a homogeneous, fluorometric method for estimating the number of viable cells present in multi-well plates. The assay uses the indicator dye resazurin to measure the metabolic capacity of cells. Viable cells retain the ability to reduce resazurin into resorufin, which is highly fluorescent.
(§7) Stock solutions (10 mM in DMSO) of compounds were serially diluted 1:2 in 11 concentrations. 50 nL/well (10 mM compound stock in DMSO) was acoustically dispensed in 384-well assay plates with an acoustic dispenser (EDC Biosystems ATS-100AV). Final starting concentration in the assay was 20 μM (0.2% DMSO) for test compounds. The following cell-lines (and origin) have been primarily used: PaCa2 (pancreatic), U266 (multiple myeloma), AMO-1 (plasmacytoma), and MDA-MB-231 (breast adenocarcinoma). PBMCs (peripheral blood mononuclear cells) from healthy donors were used as control cells. Cells were seeded in assay plates (384-well black/clear, Greiner #781091) pre-dispensed with compounds, 25 μL/well, and cultured for 72 hours. After 72 hours, Celltiter Blue reagent (Promega # G8081) was diluted 1:10 with PBS and then added to wells (5 μL/well). The plates were incubated for 2 hours following addition of reagent. The plates were read in an EnVision fluorescence reader (PerkinElmer) with Ex544 nm/Em590 nm. Results were calculated as % cell viability compared to background (cells treated with 0.2% DMSO).
(Resazurin is reduced to fluorescent resorufin, in cell work by metabolically active cells.)

The test system of experiment [4] is MDA-MB-231 (breast adenocarcinoma) cells. As to the kind of experiment: CellTiter-Blue cell viability assay, MDA-MB-231. The following applies: Homo sapiens, 72 hours of treatment. It is filed as cell-based. Here is the method:
as §5, §6, §7

For experiment [5], the target named is HDAC1 (Homo sapiens (Human), UniProt Q13547). As to the kind of experiment: HDAC1 in vitro enzymatic assay (fluorescence). Type of experiment: biochemical. The following applies: Table 4 selectivity profiling. As to the method: (§8) Biological Tests Method for Measurement of Enzymatic Activity of HDACs Materials & Methods
(§9) All Examples were tested in HDAC1,2,3,6 and 8 in vitro enzymatic assays. The assay principle is well known (Hauser et al. 2009, Bradner et al. 2010) and all necessary reagents like enzymes, substrates, developer and reference compounds are commercially available (see e.g. BPS Biosciences http://www.bpsbioscience.com/). Stock solutions (10 mM in DMSO) of compounds were serially diluted 1:3 in 11 concentrations with a top concentration of 200 μM for HDAC1,2,3 and 2 μM for HDAC6 and HDAC8. The enzymatic reactions were conducted in a mixture containing assay buffer, bovine serum albumin, HDAC substrate, and a test compound. After enzymatic reaction, developer was added and after an additional incubation time, fluorescence intensity was measured at an excitation wavelength of 360 nm and an emission wavelength of 460 nm. All experiments were performed in duplicate.

Experiment [6] concerns PBMCs (peripheral blood mononuclear cells) from healthy donors. As to the kind of experiment: CellTiter-Blue cell viability assay, healthy PBMC. Type of experiment: cell-based. The following applies: 72 hours of treatment. As to the method: as §5, §6, §7
Experiment [7] concerns the target HDAC3 (Homo sapiens (Human), UniProt O15379). As to the kind of experiment: HDAC3 in vitro enzymatic assay (fluorescence). Conditions: Table 4 selectivity profiling. Type of experiment: biochemical. As to the method: as §8, §9
In experiment [8] the test system is PaCa2 (pancreatic) cells. As to the kind of experiment: CellTiter-Blue cell viability assay, PaCa2. It is filed as cell-based. The following applies: PaCa-2; 72 hours of treatment. As to the method:
as §5, §6, §7

Experiment [9] addresses HDAC2 (Homo sapiens (Human), UniProt Q92769). As to the kind of experiment: HDAC2 in vitro enzymatic assay (fluorescence). It is filed as biochemical. Conditions: Table 4 selectivity profiling. As to the method: as §8, §9
Experiment [10] relates to U266 (multiple myeloma) cells. As to the kind of experiment: CellTiter-Blue cell viability assay, U266. The following applies: Homo sapiens, U-266; 72 hours of treatment. It is filed as cell-based. Here is the method:
as §5, §6, §7

Experiment [11] concerns the target HDAC6 (Homo sapiens (Human), UniProt Q9UBN7). The experiment can be described thus: HDAC6 in vitro enzymatic assay (fluorescence). Type of experiment: biochemical. Put shortly: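 Fluorogenic HDAC substrate reactions contained assay buffer, BSA and compound, followed by developer. Fluorescence was read at ex 360/em 460 nm. Compounds were tested as 11-point 1:3 dilutions from a top of 200 μM for HDAC1, 2 and 3, and from 2 μM for HDAC6, in duplicate.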

Experiment [12] deals with HDAC8 (Homo sapiens (Human), UniProt Q9BY41). As to the kind of experiment: HDAC8 in vitro enzymatic assay (fluorescence). Type of experiment: biochemical. The following applies: Table 4 selectivity profiling. Here is the method: as §8, §9
The mark [13] stands for this setting: Table 3, read-out: IC50 (nM) for inhibition of HDAC6.
[14] abbreviates: Table 4 selectivity profiling, read-out: IC50 (nM) HDAC6.

Sequence of HDAC6 (Q9UBN7 whole entry): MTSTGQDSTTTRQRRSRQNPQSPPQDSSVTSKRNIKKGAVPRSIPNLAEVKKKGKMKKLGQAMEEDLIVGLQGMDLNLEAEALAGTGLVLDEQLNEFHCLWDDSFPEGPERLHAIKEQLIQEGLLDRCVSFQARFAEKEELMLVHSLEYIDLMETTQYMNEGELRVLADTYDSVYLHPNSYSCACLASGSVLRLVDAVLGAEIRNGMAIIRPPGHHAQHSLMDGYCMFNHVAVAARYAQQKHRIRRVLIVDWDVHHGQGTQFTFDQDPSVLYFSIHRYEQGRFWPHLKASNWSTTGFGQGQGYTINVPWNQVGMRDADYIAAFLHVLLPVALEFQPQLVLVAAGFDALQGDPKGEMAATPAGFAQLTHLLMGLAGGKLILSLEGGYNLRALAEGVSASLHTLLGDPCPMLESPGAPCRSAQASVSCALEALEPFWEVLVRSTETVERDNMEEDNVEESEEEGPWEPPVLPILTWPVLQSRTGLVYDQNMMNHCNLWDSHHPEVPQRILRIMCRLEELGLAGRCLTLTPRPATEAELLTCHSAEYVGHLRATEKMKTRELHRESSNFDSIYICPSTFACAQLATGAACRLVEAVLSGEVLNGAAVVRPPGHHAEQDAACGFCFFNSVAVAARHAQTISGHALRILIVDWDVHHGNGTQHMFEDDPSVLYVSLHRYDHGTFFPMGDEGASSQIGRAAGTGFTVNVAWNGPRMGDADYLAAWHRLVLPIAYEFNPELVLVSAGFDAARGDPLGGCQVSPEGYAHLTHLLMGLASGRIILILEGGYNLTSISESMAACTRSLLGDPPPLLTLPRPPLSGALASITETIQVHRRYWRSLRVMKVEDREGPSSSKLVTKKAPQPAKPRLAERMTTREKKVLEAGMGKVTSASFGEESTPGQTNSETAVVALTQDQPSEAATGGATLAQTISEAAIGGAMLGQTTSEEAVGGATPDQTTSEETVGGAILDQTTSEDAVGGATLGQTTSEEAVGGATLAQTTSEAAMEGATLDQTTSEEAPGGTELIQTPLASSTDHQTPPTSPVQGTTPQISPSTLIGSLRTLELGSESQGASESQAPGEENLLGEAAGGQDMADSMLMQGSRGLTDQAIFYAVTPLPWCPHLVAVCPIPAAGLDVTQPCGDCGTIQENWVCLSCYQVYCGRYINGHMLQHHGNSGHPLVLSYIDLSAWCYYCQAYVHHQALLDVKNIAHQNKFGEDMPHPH
Sequence of HDAC8 (Q9BY41 whole entry): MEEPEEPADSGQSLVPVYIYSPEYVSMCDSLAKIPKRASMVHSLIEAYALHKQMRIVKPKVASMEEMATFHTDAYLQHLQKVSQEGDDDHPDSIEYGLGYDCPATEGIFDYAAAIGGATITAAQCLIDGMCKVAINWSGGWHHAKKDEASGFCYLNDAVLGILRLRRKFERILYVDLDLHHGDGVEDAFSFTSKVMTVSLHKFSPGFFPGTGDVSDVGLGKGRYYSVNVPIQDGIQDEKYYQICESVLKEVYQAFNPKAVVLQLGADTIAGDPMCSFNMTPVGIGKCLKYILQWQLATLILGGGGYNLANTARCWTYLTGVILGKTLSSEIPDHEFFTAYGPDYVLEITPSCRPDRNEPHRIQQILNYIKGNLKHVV
Sequence of HDAC2 (Q92769 whole entry): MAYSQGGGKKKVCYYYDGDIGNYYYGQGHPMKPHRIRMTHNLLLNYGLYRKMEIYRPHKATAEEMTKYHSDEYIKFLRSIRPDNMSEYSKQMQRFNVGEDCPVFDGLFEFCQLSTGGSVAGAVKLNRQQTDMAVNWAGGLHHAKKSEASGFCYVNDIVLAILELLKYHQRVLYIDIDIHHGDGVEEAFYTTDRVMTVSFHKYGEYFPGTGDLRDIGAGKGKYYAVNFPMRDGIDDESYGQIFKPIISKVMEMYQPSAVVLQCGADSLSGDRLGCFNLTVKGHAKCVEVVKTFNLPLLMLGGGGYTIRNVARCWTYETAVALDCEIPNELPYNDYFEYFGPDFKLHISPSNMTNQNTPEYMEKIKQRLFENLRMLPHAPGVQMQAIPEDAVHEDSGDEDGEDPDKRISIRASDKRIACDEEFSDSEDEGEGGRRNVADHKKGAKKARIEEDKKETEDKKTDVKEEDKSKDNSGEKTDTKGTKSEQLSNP
Sequence of HDAC1 (Q13547 whole entry): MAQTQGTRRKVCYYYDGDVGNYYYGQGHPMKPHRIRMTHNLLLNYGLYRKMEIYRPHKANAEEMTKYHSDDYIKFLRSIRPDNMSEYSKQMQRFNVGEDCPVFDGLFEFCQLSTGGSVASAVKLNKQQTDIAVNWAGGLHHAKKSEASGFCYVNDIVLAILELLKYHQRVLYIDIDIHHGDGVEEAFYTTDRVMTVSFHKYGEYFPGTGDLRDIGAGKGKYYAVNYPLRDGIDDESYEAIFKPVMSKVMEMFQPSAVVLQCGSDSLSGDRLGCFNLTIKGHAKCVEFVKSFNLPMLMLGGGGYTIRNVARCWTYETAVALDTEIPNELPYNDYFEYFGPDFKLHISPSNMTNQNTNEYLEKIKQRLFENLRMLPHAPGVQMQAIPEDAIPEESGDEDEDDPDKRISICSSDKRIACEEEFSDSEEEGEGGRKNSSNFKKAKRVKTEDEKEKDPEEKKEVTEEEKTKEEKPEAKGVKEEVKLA
Sequence of HDAC3 (O15379 whole entry): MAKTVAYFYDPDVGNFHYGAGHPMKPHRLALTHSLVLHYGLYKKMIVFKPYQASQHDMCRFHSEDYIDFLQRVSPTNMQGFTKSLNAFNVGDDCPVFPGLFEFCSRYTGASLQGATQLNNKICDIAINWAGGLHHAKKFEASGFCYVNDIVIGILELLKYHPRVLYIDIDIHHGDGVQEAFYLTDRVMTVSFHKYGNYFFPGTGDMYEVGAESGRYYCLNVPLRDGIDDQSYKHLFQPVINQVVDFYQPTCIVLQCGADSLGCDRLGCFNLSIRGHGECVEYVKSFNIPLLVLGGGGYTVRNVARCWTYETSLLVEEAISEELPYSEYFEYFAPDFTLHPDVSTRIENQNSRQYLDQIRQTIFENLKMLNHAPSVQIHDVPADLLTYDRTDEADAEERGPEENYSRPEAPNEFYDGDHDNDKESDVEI
Sequence of HDAC3 (Q9Y618 395-489 partner): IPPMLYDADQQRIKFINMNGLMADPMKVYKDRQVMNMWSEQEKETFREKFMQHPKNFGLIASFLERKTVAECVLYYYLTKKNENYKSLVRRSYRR

For `C[C@@H]1C[C@H]2[C@@H]3CCC4=CC(=O)C=C[C@]4(C)[C@@]3(F)[C@@H](O)C[C@]2(C)[C@@]1(O)C(=O)CO` [DEX, dexamethasone, reference compound], in experiment [1] (1 μM DEX alone), the “% apoptosis OPM-2” value is reported as 35%. In experiment [2] (1 μM DEX alone), the “% apoptosis U266” value stood at 42%.
On to `CC(C)c1ccc(-c2nc3cc(C(=O)NO)ccc3o2)cc1` [Example 1, N-Hydroxy-2-[4-(1-methylethyl)phenyl]-1,3-benzoxazole-5-carboxamide], for which the IC50 in experiment [3] is 0.39 µM; in [4], 0.65 µM; in [5], 4000 nM; in [6] it was > 20 µM; in [7] it was 1700 nM; in [8], 0.98 µM. Also, the IC50 came out at 13000 nM in experiment [9]; 0.62 µM in [10]; 26 nM in experiment [11] (setting [13]); 26 nM in experiment [11] (setting [14]); 1200 nM in experiment [12]. Besides, the “% apoptosis OPM-2” value in experiment [1] (1 μM Ex. 1 alone) amounted to 3%; in experiment [1] (2.5 μM Ex. 1 alone), 37%; in experiment [1] (5 μM Ex. 1 alone), 38%; in [1] (10 μM Ex. 1 alone) it was 59%. Further, the “% apoptosis U266” value in experiment [2] (1 μM Ex. 1 alone) was 30%; in [2] (2.5 μM Ex. 1 alone), 59%; in [2] (5 μM Ex. 1 alone) it was 43%; in experiment [2] (10 μM Ex. 1 alone) it was 88%.
`CC(C)c1ccc(-c2nc3cc(C(=O)NO)ccc3s2)cc1` [Example 75, N-Hydroxy-2-[4-(1-methylethyl)phenyl]-1,3-benzothiazole-5-carboxamide]: the IC50 is 0.41 µM in experiment [3]; 0.4 µM in experiment [4]; 900 nM in experiment [5]; > 20 µM in experiment [6]; 500 nM in [7]; 1.3 µM in [8]. The IC50 in experiment [9] came to 5500 nM; in experiment [10], 0.49 µM; in experiment [11] (setting [13]), 13 nM; in experiment [11] (setting [14]), 3 nM; in experiment [12], 28 nM.
As to `CC(C)(C)c1ccc(-c2nc3cc(C(=O)NO)ccc3s2)cc1` [Example 77, 2-(4-tert-butylphenyl)-N-hydroxy-1,3-benzothiazole-5-carboxamide], the IC50 in [3] was 0.34 µM; in experiment [4] it was 1.8 µM; in [5], 1800 nM; in experiment [6], > 20 µM; in experiment [7] it was 930 nM; in experiment [8] it was 1.4 µM. Besides, the IC50 was 9400 nM in experiment [9], 0.48 µM in [10], 22 nM in [11] (setting [14]) and 410 nM in experiment [12].
In the case of `CC(C)c1ccc(-c2cc3ccc(C(=O)NO)cc3s2)cc1` [Example 88, N-Hydroxy-2-[4-(1-methylethyl)phenyl]-1-benzothiophene-6-carboxamide], the IC50 in experiment [3] was 0.36 µM; in experiment [4], 1.1 µM; in experiment [5], 26000 nM; in [6], > 20 µM; in experiment [7], 10000 nM; in experiment [8], 0.82 µM. Besides, the IC50 worked out at 14000 nM in experiment [9]; 0.42 µM in [10]; 37 nM in [11] (setting [13]); 14 nM in [11] (setting [14]); 1100 nM in experiment [12].
Regarding `CC(C)c1ccc(-c2cc3cc(C(=O)NO)ccc3s2)cc1` [Example 89, N-Hydroxy-2-[4-(1-methylethyl)phenyl]-1-benzothiophene-5-carboxamide], the IC50 was 0.44 µM in experiment [3]; 0.81 µM in [4]; 100000 nM in experiment [5]; > 20 µM in [6]; 90000 nM in [7]; 0.68 µM in experiment [8]. Also, the IC50 was 90000 nM in experiment [9]; 0.43 µM in experiment [10]; 55 nM in [11] (setting [13]); 26 nM in experiment [11] (setting [14]); > 2000 nM in experiment [12].

Source of the values: patent US10654814B2, “Bicyclic hydroxamic acids useful as inhibitors of mammalian histone deacetylase activity” (KANCERA AB, priority 2015, dated 2020).
